In patent US20250382346A1, “NEURONAL PROMOTERS AND USES THEREOF” (priority 2023, published 2025):

Legend:
[1] = target: T1, hM3Dq (Homo sapiens, UniProt P20309, A239G/Y149C); assay: In vivo electrophysiological recording in caudate of anesthetized macaques, hM3Dq
T1 construct: expressed in transfected cells; host or cells: neurons of C57BL/6J mice or of macaques, transduced in vivo by nigral AAV8R12-G88P3-HA-hM3Dq
Description: • Electrophysiological recording was performed through a recording chamber while the monkey was anesthetized. Neural responses were recorded by a 16-channel linear probe (Plexon Inc, Uprobe) driven by a mechanical microdrive (Alpha Omega, FlexMT). Signals were passed through a head stage (Plexon Inc, HST/16V-G20 LN) and then split and filtered between 300 Hz and 5 kHz to identify spiking activity with an amplifier system (Plexon Inc, OmniPlex). Detected spikes were then sorted by commercially available software (Plexon Inc, Offline Sorter) for further analysis. To quantify the effect of CNO/DCZ injection, neural activity was recorded for 60 minutes following CNO/DCZ injection. The response time-course for each channel was obtained by counting the spikes within every 10-minute window and then normalizing to the maximal.
To determine the effect of CNO/DCZ injection on the direction of signal change, we performed Pearson correlation between neural responses and time using the ‘corr’ function in Matlab, which generates the correlation coefficient ‘r’ and significant level ‘p’. A neuron was considered to have “Increased” activity when r>0 and p<0.05; and considered to have “Decreased” activity when r<0 and p<0.05. Otherwise, neurons were considered to be “Unchanged” in their neural activities. The responses of all increased neurons were then averaged after being normalized by the maximal response (Crowe et al., 2014; Dai and Wang, 2018; Hirokawa et al., 2019) following CNO/DCZ injection, and then plotted as a function of time to generate the normalized population response.

[2] = target: T2, rM3Ds (Rattus norvegicus, UniProt P08483, A177S/A238G/A489L/DEL261-437/DEL441-478/E258S/I253V/I483M/INS256[…]/K178L/K182A/K255R/K484R/K486H/L173F/L482A/M480V/R171S/R176Q/R179M/S481M/T174R/T181R/T257A/Y148C); assay: Striatal slice whole-cell recordings of retrogradely labeled D1-MSNs, rM3Ds; type: cell-based, mice; parameters: 2A-EYFP (C); expressed in transfected cells; host or cells: neurons (striatal D1-MSNs) of mice or cynomolgus macaques, transduced in vivo by nigral AAV8R12-G88P7-rM3Ds-2A-EYFP; details: AAV8R12-G88P7-rM3Ds-2A-EYFP; CNO 10 μM; basal firing rate and resting membrane potential unaffected
T2 sequence (P08483 with tags, fused parts or gaps Y148C/R171S/L173F/T174R/R176Q/A177S/K178L/R179M/T181R/K182A/A238G/I253V/K255R/INS256[…]/T257A/E258S/DEL261-437/DEL441-478/M480V/S481M/L482A/I483M/K484R/K486H/A489L): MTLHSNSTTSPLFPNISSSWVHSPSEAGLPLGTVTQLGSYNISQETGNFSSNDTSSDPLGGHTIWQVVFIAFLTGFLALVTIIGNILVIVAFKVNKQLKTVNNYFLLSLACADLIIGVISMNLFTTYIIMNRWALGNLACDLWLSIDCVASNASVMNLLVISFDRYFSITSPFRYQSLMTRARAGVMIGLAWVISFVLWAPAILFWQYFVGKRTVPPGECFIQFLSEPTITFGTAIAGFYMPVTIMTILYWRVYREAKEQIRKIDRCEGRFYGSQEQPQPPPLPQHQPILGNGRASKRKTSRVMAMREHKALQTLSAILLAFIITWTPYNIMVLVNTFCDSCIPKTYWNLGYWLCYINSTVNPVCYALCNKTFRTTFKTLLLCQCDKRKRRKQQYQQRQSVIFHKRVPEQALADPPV
Source text: Mice from different groups were anesthetized with […] isoflurane, and then decapitated. The brain was quickly extracted and placed in ice-cold N-methyl-D-glucamine (NMDG) cutting solution containing (in mM): 92 NMDG, 2.5 KCl, 25 NaHCO3, 1.25 NaH2PO4, 4.5 D-Glucose, 20 HEPES, 5 L-ascorbic acid, 3 Na-pyruvate, 2 Thiourea, 10 MgSO4, 0.5 CaCl2). The pH was adjusted to 7.2±0.1 using HCl and the osmolarity was adjusted to 305±5 mosmol/L using NMDG. The solution was bubbled with 95% O2/5% CO2 prior to use. Coronal striatum slices were cut in 250-[…]m thickness with a vibratome slicer (Leica, VT1200 S), and then incubated in artificial cerebrospinal fluid (aCSF) saturated with 95% O2/5% CO2 for at least 45 min at 37° C. before recording. The aCSF contains (in mM) 125 NaCl, 1.25 KCl, 25 NaHCO3, 1.25 KH2PO4, 25 D-Glucose, 2 CaCl2) and 1 MgCl2, supplemented with 2 mM Na-pyruvate, 3 mM Myo-inositol and 0.4 mM L-ascorbic acid.
The acute striatum slice was transferred to the recording chamber with a constant perfusion of oxygenized aCSF at the rate of 3 ml/min. Neurons were visualized using an upright microscope (Olympus, BX-51) with a 40× water immersion objective at room temperature (˜25° C.). […] Neurons were quickly visualized under fluorescence microscope and then patch clamp were achieved under infrared light illumination and CCD camera. […]

[3] = 34 total cells, CNO infusions, saline 40.6%
[4] = monkey CM045, 34 cells, CNO infusion into dorsomedial caudate

T1 sequence (P20309 whole entry Y149C/A239G): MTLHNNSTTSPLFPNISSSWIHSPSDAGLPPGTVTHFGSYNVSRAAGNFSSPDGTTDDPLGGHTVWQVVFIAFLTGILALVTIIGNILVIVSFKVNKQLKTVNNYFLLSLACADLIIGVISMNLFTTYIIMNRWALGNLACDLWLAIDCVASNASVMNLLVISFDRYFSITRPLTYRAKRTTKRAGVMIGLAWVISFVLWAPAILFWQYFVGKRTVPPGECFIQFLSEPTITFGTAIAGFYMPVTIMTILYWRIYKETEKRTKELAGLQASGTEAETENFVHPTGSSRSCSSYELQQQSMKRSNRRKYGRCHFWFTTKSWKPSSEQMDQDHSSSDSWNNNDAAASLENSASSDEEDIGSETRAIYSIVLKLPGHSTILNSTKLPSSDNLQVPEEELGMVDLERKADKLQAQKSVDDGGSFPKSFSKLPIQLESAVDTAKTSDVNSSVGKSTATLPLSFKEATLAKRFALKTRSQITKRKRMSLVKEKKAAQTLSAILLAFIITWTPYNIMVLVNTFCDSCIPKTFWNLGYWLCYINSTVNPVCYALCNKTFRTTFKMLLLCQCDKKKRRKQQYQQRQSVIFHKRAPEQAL

## C[N+]1([O-])CCN(C2=Nc3cc(Cl)ccc3Nc3ccccc32)CC1 [CNO, Clozapine-N-oxide]
[1]; 34 total cells, CNO infusions, saline 18.8%
  cells in caudate activated (FIG. 12L): 67.6%
[1]; [3]
  cells in caudate inactivated (FIG. 12L): 2.9%
  cells in caudate unchanged (FIG. 12L): 29.4%
[1]; [4]
  cells in caudate activated (FIG. 12C): 70.6%
  cells in caudate inactivated (FIG. 12C): 8.8%
  cells in caudate unchanged (FIG. 12C): 20.6%
[2]
  excitability of labeled striatal MSNs upon CNO: enhancement in the excitability
